From patent publication US10980805B2, “Aza-pyridone compounds and uses thereof” (Janssen BioPharma, Inc., priority 2013, dated 2021)

Tests used:
[1] = test system: Influenza strain A549_A/WSN/33 (H1N1); experiment: Influenza antiviral assay (neuraminidase fluorescence readout); format: cell-based, Influenza virus; details: Influenza A virus, read-out: % Inhibition (EC50 class, Table 2)
[2] = target: Full length EN PA (influenza PA endonuclease) (Influenza A virus, UniProt P15659); experiment: EN PA FRET inhibition assay; format: biochemical; details: FRET probe, mean of a minimum of two independent experiments, read-out: Potency (IC50 class, Table 3)

| Compound | EC50 [1] [µM] | IC50 [2] [µM] |
| --- | --- | --- |
| CN1CC(C(c2ccccc2)c2cccc(OCC3CC3)c2)n2ncc(=O)c(O)c2C1=O (stereo not shown) [Compound 55] | 20 to 100 | < 0.25 |
| CN1CC(C2c3cc(F)ccc3CCc3c(F)cccc32)n2ncc(=O)c(O)c2C1=O (stereo not shown) [Compound 56] | < 20 | < 0.25 |
| CN1CC(C2c3ccccc3COc3ccccc32)n2ncc(=O)c(O)c2C1=O (stereo not shown) [Compound 57] | < 20 | < 0.25 |
| CN1CC(C2c3ccc(F)cc3CCc3c(F)cccc32)n2ncc(=O)c(O)c2C1=O (stereo not shown) [Compound 59-A] | < 20 | < 0.25 |
| CN1CC(C(c2ccc(Cl)cc2)c2cccc(Cl)c2)n2ncc(=O)c(O)c2C1=O (stereo not shown) [Compound 60] | < 20 | < 0.25 |
| CN1CC(C(c2ccc(F)cc2)c2cccc(Cl)c2)n2ncc(=O)c(O)c2C1=O (stereo not shown) [Compound 61] | < 20 | < 0.25 |
| CN1CC(C(c2cccc(Cl)c2)c2ccccc2F)n2ncc(=O)c(O)c2C1=O (stereo not shown) [Compound 62] | < 20 | < 0.25 |
| O=C1c2c(O)c(=O)cnn2[C@@H](C(c2ccccc2)c2ccccc2)CN1C1CCOCC1 [Compound 63-A] | < 20 | < 0.25 |
| O=C1c2c(O)c(=O)cnn2[C@H](C(c2ccccc2)c2ccccc2)CN1C1CCOCC1 [Compound 63-B] | < 20 | 0.25 to 1 |
| O=C1c2c(O)c(=O)cnn2C(C(c2ccccc2)c2ccccc2)CN1C1CCOCC1 (stereo not shown) [Compound 63] | < 20 | < 0.25 |
| CN1CC(C(c2ccccc2)c2cccc(O)c2)n2ncc(=O)c(O)c2C1=O (stereo not shown) [Compound 64] | < 20 | < 0.25 |
| CC(C)C(=O)Oc1c2n(ncc1=O)[C@@H](C1c3ccccc3CCc3ccccc31)CN(C)C2=O [Compound 65-A] | < 20 | < 0.25 |
| CCN1C[C@H]([C@@H](c2ccccc2)c2cccc(Cl)c2)n2ncc(=O)c(OC(=O)C(C)C)c2C1=O [Compound 67-A] | < 20 | < 0.25 |
| CC(C)N1C[C@@H](C(c2cccc(Cl)c2)c2cccc(Cl)c2)n2ncc(=O)c(O)c2C1=O [Compound 68-B] | < 20 | 0.25 to 1 |
| CC(C)C(=O)Oc1c2n(ncc1=O)[C@@H](C(c1ccccc1)c1ccccc1)CN(C(C)C)C2=O [Compound 69-A] | < 20 | < 0.25 |
| CC(C)C(=O)Oc1c2n(ncc1=O)[C@@H](C(c1cccc(F)c1)c1cccc(F)c1)CN(C(C)C)C2=O [Compound 70-A] | < 20 | < 0.25 |
| CN1C[C@H]([C@@H]2c3cc(F)ccc3CCc3c(F)cccc32)n2ncc(=O)c(O)c2C1=O [Compound 71-A] | < 20 | < 0.25 |
| CN1C[C@H]([C@H]2c3cc(F)ccc3CCc3c(F)cccc32)n2ncc(=O)c(O)c2C1=O [Compound 71-B] | < 20 | < 0.25 |
| CN1C[C@@H](C2c3cc(F)ccc3CCc3c(F)cccc32)n2ncc(=O)c(O)c2C1=O (stereo partly shown) [Compound 71] | 20 to 100 | 0.25 to 1 |
| CCN1C[C@H](C(c2cccc(F)c2)c2cccc(F)c2)n2ncc(=O)c(OC(=O)C(C)C)c2C1=O [Compound 72-A] | < 20 | < 0.25 |
| CCCN1C[C@H](C(c2cccc(F)c2)c2cccc(F)c2)n2ncc(=O)c(O)c2C1=O [Compound 74-A] | < 20 | < 0.25 |

| Compound | EC50 [1] [µM] | IC50 [2] [µM] |
| --- | --- | --- |
| O=C1c2c(O)c(=O)cnn2[C@@H](C(c2cccc(F)c2)c2cccc(F)c2)CN1Cc1ccccc1 [Compound 75-A] | < 20 | < 0.25 |
| CC(C)N1CC(C(c2ccccc2)c2cccc(-c3ccccc3)c2)n2ncc(=O)c(O)c2C1=O (stereo not shown) [Compound 78] | < 20 | < 0.25 |
| CCN1C[C@H](C(c2ccccc2)c2cccc(Cl)c2)n2ncc(=O)c(OC(=O)c3cccnc3)c2C1=O (stereo partly shown) [Compound 79-A] | < 20 | < 0.25 |
| CCCN1C[C@H](C(c2cccc(F)c2)c2cccc(F)c2)n2ncc(=O)c(OC(=O)C(C)C)c2C1=O [Compound 80-A] | < 20 | < 0.25 |
| CN1C[C@H](C2c3ccc(F)cc3CCc3c(F)cccc32)n2ncc(=O)c(O)c2C1=O (stereo partly shown) [Compound 81-A] | < 20 | < 0.25 |
| CN1C[C@@H](C2c3ccc(F)cc3CCc3c(F)cccc32)n2ncc(=O)c(O)c2C1=O (stereo partly shown) [Compound 81-B] | 20 to 100 | < 0.25 |
| CN1C[C@H](C2c3cccc(F)c3CCc3c(F)cccc32)n2ncc(=O)c(O)c2C1=O [Compound 83-A] | < 20 | < 0.25 |
| CN1C[C@@H](C2c3cccc(F)c3CCc3c(F)cccc32)n2ncc(=O)c(O)c2C1=O [Compound 83-B] | 20 to 100 | 0.25 to 1 |
| CN1CC(C2c3cccc(F)c3CCc3c(F)cccc32)n2ncc(=O)c(O)c2C1=O (stereo not shown) [Compound 83] | < 20 | < 0.25 |
| CCCN1C[C@H](C(c2cccc(Cl)c2)c2cccc(Cl)c2)n2ncc(=O)c(O)c2C1=O [Compound 84-A] | < 20 | < 0.25 |
| CCOc1c2n(ncc1=O)[C@@H](C(c1cccc(F)c1)c1cccc(F)c1)CN(CC)C2=O [Compound 85-A] | 20 to 100 | ≥ 1 |
| CC(C)CN1C[C@H](C(c2cccc(F)c2)c2cccc(F)c2)n2ncc(=O)c(O)c2C1=O [Compound 86-A] | < 20 | < 0.25 |
| CCCCN1C[C@H](C(c2cccc(F)c2)c2cccc(F)c2)n2ncc(=O)c(O)c2C1=O [Compound 87-A] | < 20 | < 0.25 |
| CCN1C[C@H](C(c2cccc(F)c2)c2cccc(F)c2)n2ncc(=O)c(OCOC(=O)Oc3ccc([N+](=O)[O-])cc3C)c2C1=O [Compound 88-A] | < 20 | 0.25 to 1 |
| CN1C[C@H](C2c3ccc(F)cc3CCc3cc(F)ccc32)n2ncc(=O)c(O)c2C1=O [Compound 89-A] | < 20 | < 0.25 |
| CN1C[C@@H](C2c3ccc(F)cc3CCc3cc(F)ccc32)n2ncc(=O)c(O)c2C1=O [Compound 89-B] | < 20 | < 0.25 |
| CN1CC(C2c3ccc(F)cc3CCc3cc(F)ccc32)n2ncc(=O)c(O)c2C1=O (stereo not shown) [Compound 89] | < 20 | < 0.25 |
| COCC(C)(C)N1CC(C(c2ccccc2)c2ccccc2)n2ncc(=O)c(O)c2C1=O (stereo not shown) [Compound 90] | < 20 | < 0.25 |
| CCN1C[C@H](C(c2cccc(F)c2)c2cccc(F)c2)n2ncc(=O)c(OCOC(=O)NCCN3CCOCC3)c2C1=O [Compound 91-A] | 20 to 100 | ≥ 1 |
| O=C1c2c(O)c(=O)cnn2[C@@H](C(c2cccc(F)c2)c2cccc(F)c2)CN1CCO [Compound 92-A] | < 20 | < 0.25 |
| O=C1c2c(O)c(=O)cnn2[C@@H](C(c2cccc(F)c2)c2cccc(F)c2)CN1CC1CC1 [Compound 93-A] | < 20 | < 0.25 |

| Compound | EC50 [1] [µM] | IC50 [2] [µM] |
| --- | --- | --- |
| CCN1C[C@H](C(c2cccc(F)c2)c2cccc(F)c2)n2ncc(=O)c(OCOC(=O)NC)c2C1=O [Compound 94-A] | 20 to 100 | ≥ 1 |
| CCN1C[C@H](C(c2cccc(F)c2)c2cccc(F)c2)n2ncc(=O)c(OCOC(=O)[C@@H](N)C(C)C)c2C1=O [Compound 95-A] | < 20 | < 0.25 |
| CC(C)[C@H](N)C(=O)OCOc1c2n(ncc1=O)[C@@H](C(c1ccccc1)c1ccccc1)CN(C(C)C)C2=O [Compound 96-A] | < 20 | < 0.25 |
| O=C1c2c(O)c(=O)cnn2[C@@H](C(c2ccccc2)c2ccccc2)CN1CC1CC1 [Compound 97-A] | < 20 | < 0.25 |
| CC(C)CN1C[C@H](C(c2ccccc2)c2ccccc2)n2ncc(=O)c(O)c2C1=O [Compound 98-A] | < 20 | < 0.25 |
| CN1CC(C(c2ccccc2)c2cccc(CC#N)c2)n2ncc(=O)c(O)c2C1=O (stereo not shown) [Compound 99] | 20 to 100 | < 0.25 |
| CN1CC(C(c2ccccc2)c2cccc(C#N)c2)n2ncc(=O)c(O)c2C1=O (stereo not shown) [Compound 100] | < 20 | < 0.25 |
| CN1CC(C(c2ccccc2)c2cccc(CC(N)=O)c2)n2ncc(=O)c(O)c2C1=O (stereo not shown) [Compound 101] | 20 to 100 | < 0.25 |
| CN1CC(C(c2cccc(C#N)c2)c2cccc(C#N)c2)n2ncc(=O)c(O)c2C1=O (stereo not shown) [Compound 102] | 20 to 100 | < 0.25 |
| CN1CC(C(Cc2ccccc2)c2ccccc2)n2ncc(=O)c(O)c2C1=O (stereo not shown) [Compound 103] | 20 to 100 | < 0.25 |
| CN1CC(C(c2ccccc2)c2cccc(Cc3cnn(C)c3)c2)n2ncc(=O)c(O)c2C1=O (stereo not shown) [Compound 104] | < 20 | < 0.25 |
| CN1C[C@H]([C@@H](c2ccccc2)c2cccc(OC3CC3)c2)n2ncc(=O)c(O)c2C1=O [Compound 105-A] | < 20 | < 0.25 |
| CN1C[C@H]([C@H](c2ccccc2)c2cccc(OC3CC3)c2)n2ncc(=O)c(O)c2C1=O [Compound 105-B] | < 20 | < 0.25 |
| CN1C[C@@H]([C@H](c2ccccc2)c2cccc(OC3CC3)c2)n2ncc(=O)c(O)c2C1=O [Compound 105-C] | < 20 | 0.25 to 1 |
| CN1C[C@@H]([C@@H](c2ccccc2)c2cccc(OC3CC3)c2)n2ncc(=O)c(O)c2C1=O [Compound 105-D] | 20 to 100 | ≥ 1 |
| CN1CC(C(c2ccccc2)c2cccc(OC3CC3)c2)n2ncc(=O)c(O)c2C1=O (stereo not shown) [Compound 105] | 20 to 100 | < 0.25 |
| CC(N)C(=O)OCOc1c2n(ncc1=O)[C@@H](C(c1ccccc1)c1ccccc1)CN(C(C)C)C2=O (stereo partly shown) [Compound 106-A] | < 20 | < 0.25 |
| CN1C[C@H]([C@@H](c2ccccc2)n2cnc(I)c2)n2ncc(=O)c(O)c2C1=O [Compound 107-A] | 20 to 100 | < 0.25 |
| CN1C[C@H]([C@H](c2ccccc2)n2cnc(I)c2)n2ncc(=O)c(O)c2C1=O [Compound 107-B] | 20 to 100 | < 0.25 |
| CN1C[C@H]([C@@H](c2ccccc2)n2ccnc2)n2ncc(=O)c(O)c2C1=O [Compound 108-A] | 20 to 100 | < 0.25 |
